In patent US10457687B2, “Aminoacid derivatives, a process for their preparation and pharmaceutical compositions containing them” (LES LABORATOIRES SERVIER, priority 2015, dated 2019):

Experiments:
[1] = molecular target: Mcl-1 protein (Homo sapiens, UniProt Q07820); assay: Inhibition of Mcl-1 by the fluorescence polarisation technique (Method 1 or Method 2); assay type: binding; conditions: for IC50: fluorescence polarisation, Fluorescein labelled ligand, Method 1 (not underlined) or Method 2 (underlined), read-out: IC50 (μM) Mcl-1 FP; for percentage fluorescence polarisation inhibition, Mcl-1 FP: partial inhibitors
Summary of the method: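 Fluorescence polarisation competition of 11-point compound dilutions (5% DMSO final) against fluorescein-labelled ligand for Mcl-1. Method 1: 1 nM ligand, 5 nM protein in 10 mM HEPES, 150 mM NaCl, 0.05% Tween 20, pH 7.4; Method 2: 10 nM ligand, 10 nM protein in 20 mM Na2HPO4, 1 mM EDTA, 50 mM NaCl, pH 7.4.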

[2] = system: H929 multiple myeloma tumour line; assay: In vitro cytotoxicity, MTT assay, 48 hours; assay type: cell-based; conditions: H929 cells, 48 hours exposure, cell viability
Procedure: The cytotoxicity studies were carried out on the H929 multiple myeloma tumour line.
The cells are distributed onto microplates and exposed to the test compounds for 48 hours.

Sequence of Mcl-1 protein (Q07820 whole entry): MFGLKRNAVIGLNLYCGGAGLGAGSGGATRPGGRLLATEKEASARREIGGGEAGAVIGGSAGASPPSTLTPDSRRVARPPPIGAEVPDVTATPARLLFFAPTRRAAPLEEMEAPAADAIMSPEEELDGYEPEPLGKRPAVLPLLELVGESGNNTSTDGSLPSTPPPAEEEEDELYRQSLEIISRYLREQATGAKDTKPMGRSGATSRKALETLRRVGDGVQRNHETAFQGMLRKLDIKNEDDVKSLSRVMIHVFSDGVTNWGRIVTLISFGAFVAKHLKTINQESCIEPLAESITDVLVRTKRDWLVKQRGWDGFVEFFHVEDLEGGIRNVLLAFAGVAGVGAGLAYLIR

Compound	IC50 [1]	also measured
Cc1c(-c2c(-c3ccsc3)sc3ncnc(NC(Cc4ccccc4F)C(=O)O)c23)ccc(OCCN2CCN(C)CC2)c1Cl [Example 34, N-[(5Sa)-5-{3-chloro-2-methyl-4-[2-(4-methylpiperazin-1-yl)ethoxy]phenyl}-6-(thiophen-3-yl)thieno[2,3-d]pyrimidin-4-yl]-2-fluoro-D-phenylalanine]	0.726 µM	IC50 ([2]; Homo sapiens, NCI-H929): 4270 nM
COC(=O)c1oc(-c2sc3ncnc(NC(Cc4ccccc4OC)C(=O)O)c3c2-c2ccc(OCCN3CCN(C)CC3)c(Cl)c2C)cc1C [Example 65, N-((5Sa)-5-{3-chloro-2-methyl-4-[2-(4-methylpiperazin-1-yl)ethoxy]phenyl}-6-[5-(methoxycarbonyl)-4-methylfuran-2-yl]thieno[2,3-d]pyrimidin-4-yl)-2-methoxy-D-phenylalanine]	0.345 µM	IC50 ([2]; Homo sapiens, NCI-H929): ≥ 2780 nM
Cc1c(-c2c(-c3ccco3)sc3ncnc(NC(Cc4ccccc4OCc4ccccn4)C(=O)O)c23)ccc(OCCN2CCN(C)CC2)c1Cl [Example 13, N-[(5Ra)-5-{3-chloro-2-methyl-4-[2-(4-methylpiperazin-1-yl)ethoxy]phenyl}-6-(furan-2-yl)thieno[2,3-d]pyrimidin-4-yl]-2-(pyridin-2-ylmethoxy)-D-phenylalanine]		percentage fluorescence polarisation inhibition, Mcl-1 FP ([1]; @ 10 μM test compound): 58% @ 10 μM; IC50 [2]: > 3750 nM
Cc1c(-c2c(-c3ccsc3)sc3ncnc(NC(Cc4ccccn4)C(=O)O)c23)ccc(OCCN2CCOCC2)c1Cl [Example 36, N-[(5Sa)-5-{3-chloro-2-methyl-4-[2-(morpholin-4-yl)ethoxy]phenyl}-6-(thiophen-3-yl)thieno[2,3-d]pyrimidin-4-yl]-3-pyridin-2-yl-D-alanine]	0.086 µM	IC50 ([2]; Homo sapiens, NCI-H929): > 7500 nM
CC#Cc1sc2ncnc(NC(Cc3ccccc3OC)C(=O)O)c2c1-c1ccc(OCCN2CCN(C)CC2)c(Cl)c1C [Example 39, N-[(5Sa)-5-{3-chloro-2-methyl-4-[2-(4-methylpiperazin-1-yl)ethoxy]phenyl}-6-(prop-1-yn-1-yl)thieno[2,3-d]pyrimidin-4-yl]-2-methoxy-D-phenylalanine]	0.025 µM	IC50 ([2]; Homo sapiens, NCI-H929): 401 nM
Cc1c(-c2c(-c3ccc(F)o3)sc3ncnc(NC(Cc4ccccc4OCC(F)(F)F)C(=O)O)c23)ccc(OCCN2CCN(C)CC2)c1Cl [Example 17, N-[(5Sa)-5-{3-chloro-2-methyl-4-[2-(4-methylpiperazin-1-yl)ethoxy]phenyl}-6-(5-fluorofuran-2-yl)thieno[2,3-d]pyrimidin-4-yl]-2-(2,2,2-trifluoroethoxy)-D-phenylalanine]	0.057 µM	IC50 ([2]; Homo sapiens, NCI-H929): 294 nM
COc1ccccc1C[C@@H](Nc1ncnc2sc(-c3ccc(F)o3)c(-c3ccc(OCCN4CCN(C)CC4)c(Cl)c3C)c12)C(=O)O [Example 15, N-[(5Ra)-5-{3-chloro-2-methyl-4-[2-(4-methylpiperazin-1-yl)ethoxy]phenyl}-6-(5-fluorofuran-2-yl)thieno[2,3-d]pyrimidin-4-yl]-2-methoxy-D-phenylalanine]		percentage fluorescence polarisation inhibition, Mcl-1 FP ([1]; @ 10 μM test compound): 40.05% @ 10 μM; IC50 [2]: > 3750 nM
Cc1c(-c2c(-c3ccc(F)o3)sc3ncnc(NC(Cc4ccccc4O)C(=O)O)c23)ccc(OCCN(C)C)c1Cl [Example 28, N-[(5Sa)-5-{3-chloro-4-[2-(dimethylamino)ethoxy]-2-methylphenyl}-6-(5-fluorofuran-2-yl)thieno[2,3-d]pyrimidin-4-yl]-2-hydroxy-D-phenylalanine]	0.116 µM	IC50 ([2]; Homo sapiens, NCI-H929): > 1880 nM
Cc1c(-c2c(-c3ccc(F)cc3)sc3ncnc(NC(Cc4ccccc4OCc4ccnc(-c5ccccc5F)n4)C(=O)O)c23)ccc(OCCN(C)C)c1Cl [Example 50, N-[(5Sa)-5-{3-chloro-4-[2-(dimethylamino)ethoxy]-2-methylphenyl}-6-(4-fluorophenyl)thieno[2,3-d]pyrimidin-4-yl]-2-{[2-(2-fluorophenyl)pyrimidin-4-yl]methoxy}-D-phenylalanine]	0.007 µM	IC50 ([2]; Homo sapiens, NCI-H929): > 150 nM
CCCCn1nccc1COc1ccccc1CC(Nc1ncnc2sc(-c3ccc(F)cc3)c(-c3ccc(OCCN4CCN(C)CC4)c(Cl)c3C)c12)C(=O)O [Example 6, 2-[(1-butyl-1H-pyrazol-5-yl)methoxy]-N-[(5Sa)-5-{3-chloro-2-methyl-4-[2-(4-methylpiperazin-1-yl)ethoxy]phenyl}-6-(4-fluorophenyl)thieno[2,3-d]pyrimidin-4-yl]-D-phenylalanine]	0.013 µM	IC50 ([2]; Homo sapiens, NCI-H929): > 600 nM
COc1ccccc1C[C@@H](Nc1ncnc2sc(-c3ccc(F)cc3)c(-c3ccc(OCCN4CCN(C)CC4)c(Cl)c3C)c12)C(=O)O [Example 2, N-[(5Ra)-5-{3-chloro-2-methyl-4-[2-(4-methylpiperazin-1-yl)ethoxy]phenyl}-6-(4-fluorophenyl)thieno[2,3-d]pyrimidin-4-yl]-2-methoxy-D-phenylalanine]		percentage fluorescence polarisation inhibition, Mcl-1 FP ([1]; @ 10 μM test compound): 56.9% @ 10 μM; IC50 [2]: > 600 nM
CCc1sc2ncnc(N[C@H](Cc3ccccn3)C(=O)O)c2c1-c1cccc2ccccc12 [Example 191, N-[6-ethyl-5-(naphthalen-1-yl)thieno[2,3-d]pyrimidin-4-yl]-3-pyridin-2-yl-D-alanine]	0.171 µM	
CCc1sc2ncnc(NC(Cc3cccc(F)c3)C(=O)O)c2c1-c1cccc2ccccc12 [Example 179, N-[6-ethyl-(5Sa)-5-(naphthalen-1-yl)thieno[2,3-d]pyrimidin-4-yl]-3-fluoro-D-phenylalanine]	0.881 µM	
CCc1sc2ncnc(NC(Cc3ccccc3)C(=O)O)c2c1-c1cncc2ccccc12 [Example 81, N-[6-ethyl-(5Sa)-5-(isoquinolin-4-yl)thieno[2,3-d]pyrimidin-4-yl]-D-phenylalanine]	20.2 µM	
CCc1sc2ncnc(NC(Cc3ccccc3)C(=O)O)c2c1-c1cccc2c1c(Cl)cn2CCN(C)C [Example 230, N-((5Sa)-5-{3-chloro-1l-[2-(dimethylamino)ethyl]-1H-indol-4-yl}-6-ethyl-thieno[2,3-d]pyrimidin-4-yl)-D-phenylalanine]	3.24 µM	
CCc1sc2ncnc(NC(Cc3ccccc3)C(=O)O)c2c1-c1cccc2[nH]ccc12 [Example 74, N-[6-ethyl-(5Ra)-5-(1H-indol-4-yl)thieno[2,3-d]pyrimidin-4-yl]-D-phenylalanine]	0.621 µM	
CC(=O)c1sc2ncnc(NC(Cc3ccccc3)C(=O)O)c2c1-c1cccc2ccccc12 [Example 199, N-[6-acetyl-(5Sa)-5-(naphthalen-1-yl)thieno[2,3-d]pyrimidin-4-yl]-D-phenylalanine]	0.298 µM	
CCc1sc2ncnc(N[C@H](CC3CC3)C(=O)O)c2c1-c1cccc2ccccc12 [Example 159, 3-cyclopropyl-N-[6-ethyl-5-(naphthalen-1-yl)thieno[2,3-d]pyrimidin-4-yl]-D-alanine]	1.77 µM	
CCc1sc2ncnc(NC(Cc3ccccc3OCc3cccc(Cl)c3)C(=O)O)c2c1-c1cccc(Cl)c1C [Example 149, 2-[(3-chlorobenzyl)oxy]-N-[(5Ra)-5-(3-chloro-2-methylphenyl)-6-ethylthieno[2,3-d]pyrimidin-4-yl]-D-phenylalanine]	14 µM	
Cc1c(Cl)cccc1-c1c(C2CC2)sc2ncnc(NC(Cc3ccccc3)C(=O)O)c12 [Example 217, N-[(5Sa)-5-(3-chloro-2-methylphenyl)-6-cyclopropyl-thieno[2,3-d]pyrimidin-4-yl]-D-phenylalanine]	0.065 µM	
CC(C)(O)c1sc2ncnc(NC(Cc3ccccc3)C(=O)O)c2c1-c1cccc2ccccc12 [Example 209, N-[6-(2-hydroxypropan-2-yl)-(5Ra)-5-(naphthalen-1-yl)thieno[2,3-d]pyrimidin-4-yl]-D-phenylalanine]		percentage fluorescence polarisation inhibition, Mcl-1 FP ([1]; @ 200 μM test compound): 56.85% @ 200 μM
CCc1sc2ncnc(NC(Cc3ccccc3C(N)=O)C(=O)O)c2c1-c1cccc(Cl)c1C [Example 134, 2-carbamoyl-N-[(5Sa)-5-(3-chloro-2-methylphenyl)-6-ethylthieno[2,3-d]pyrimidin-4-yl]-D-phenylalanine]	0.176 µM	
CCc1sc2ncnc(NC(Cc3ccccc3)C(=O)O)c2c1-c1cncc2ccccc12 [Example 82, N-[6-ethyl-(5Ra)-5-(isoquinolin-4-yl)thieno[2,3-d]pyrimidin-4-yl]-D-phenylalanine]	1.11 µM	
CCc1sc2ncnc(NC(Cc3ccccc3Br)C(=O)O)c2c1-c1cccc(Cl)c1C [Example 140, 2-bromo-N-[(5Sa)-5-(3-chloro-2-methylphenyl)-6-ethylthieno[2,3-d]pyrimidin-4-yl]-D-phenylalanine]	0.208 µM	
CCc1sc2ncnc(NC(Cc3ccc(F)cc3)C(=O)O)c2c1-c1cccc2ccccc12 [Example 176, N-[6-ethyl-(5Ra)-5-(naphthalen-1-yl)thieno[2,3-d]pyrimidin-4-yl]-4-fluoro-D-phenylalanine]	8.41 µM	
CCc1sc2ncnc(NC(Cc3ccccc3)C(=O)O)c2c1-c1cccc(F)c1C [Example 70, N-[6-ethyl-(5Ra)-5-(3-fluoro-2-methylphenyl)thieno[2,3-d]pyrimidin-4-yl]-D-phenylalanine]	0.974 µM	
C=C(C)c1sc2ncnc(NC(Cc3ccccc3)C(=O)O)c2c1-c1cccc2ccccc12 [Example 107, N-[(5Ra)-5-(naphthalen-1-yl)-6-(prop-1-en-2-yl)thieno[2,3-d]pyrimidin-4-yl]-D-phenylalanine]	0.544 µM	
CCc1sc2ncnc(N[C@H](Cc3ccccc3Cl)C(=O)O)c2c1-c1cccc2ccccc12 [Example 183, 2-chloro-N-[6-ethyl-5-(naphthalen-1-yl)thieno[2,3-d]pyrimidin-4-yl]-D-phenylalanine]	2.04 µM	
CCc1sc2ncnc(NC(CCc3ccccc3)C(=O)O)c2c1-c1cccc2ccccc12 [Example 171, (2R)-2-{[6-ethyl-(5Ra)-5-(naphthalen-1-yl)thieno[2,3-d]pyrimidin-4-yl]amino}-4-phenylbutanoic acid]	2.77 µM	
